# ± gives the standard deviation of the reports.
row,SMILES,glass transition temperature [°C]
1,*CC(*)(C)C(=O)OCCCCCCCC(C)C (repeat unit) [Poly(isodecyl methacrylate)],-41
2,*CC(*)C(=O)NC(C)CC (repeat unit) [Poly(N-sec-butylacrylamide)],117

# Remark: another data set of the same source
row,SMILES,glass transition temperature [°C]
1,*C=C(*)c1ccccc1 (repeat unit) [Poly(phenylacetylene)],51

# Remark: another data set of the same source
row,glass transition temperature [°C],SMILES
1,220 ± 130,*C(=O)c1ccc2c(c1)C(=O)N(c1cccc(C(=O)c3cccc(N4C(=O)c5ccc(*)cc5C4=O)c3)c1)C2=O (repeat unit) [Polyimide]
2,273.50,*C(=O)c1ccc2c(c1)C(=O)N(c1ccc(C(=O)Oc3ccc4ccccc4c3-c3c(OC(=O)c4ccc(N5C(=O)c6ccc(*)cc6C5=O)cc4)ccc4ccccc34)cc1)C2=O (repeat unit)
3,198.00,*Oc1cccc2c1C(=O)N(c1cccc(Oc3ccc(C(=O)c4ccc(Oc5cccc(N6C(=O)c7cccc(*)c7C6=O)c5)cc4)cc3)c1)C2=O (repeat unit)
4,370.00,*c1ccc2c(c1)C(=O)N(c1ccc(N3C(=O)c4ccc(C(*)(C(F)(F)F)C(F)(F)F)cc4C3=O)cc1F)C2=O (repeat unit)
5,300.00,*Oc1c(F)c(F)c(Oc2c(F)c(F)c3c(c2F)C(=O)N(c2c(F)c(F)c(Oc4c(F)c(F)c(N5C(=O)c6c(F)c(*)c(F)c(F)c6C5=O)c(F)c4F)c(F)c2F)C3=O)c(F)c1F (repeat unit)
6,260.00,*c1ccc2c(c1)C(=O)N(c1cccc(S(=O)(=O)c3cccc(N4C(=O)c5ccc(*)cc5C4=O)c3)c1)C2=O (repeat unit)
7,265.00,*Oc1cccc(S(=O)(=O)c2ccc(Oc3ccc4c(c3)C(=O)N(c3cccc(N5C(=O)c6ccc(*)cc6C5=O)c3)C4=O)cc2)c1 (repeat unit)
8,366.00,*c1ccc2c(c1)C(=O)N(c1ccc(N3C(=O)c4ccc(C(*)(C(F)(F)F)C(F)(F)F)cc4C3=O)cc1C(F)(F)F)C2=O (repeat unit)
9,223.00,*Oc1cccc(C(C)(C)c2ccc(Oc3ccc4c(c3)C(=O)N(c3ccc(Oc5ccc(N6C(=O)c7ccc(*)cc7C6=O)cc5)cc3)C4=O)cc2)c1 (repeat unit)
10,226.00,*Oc1ccc(C(c2ccc(Oc3cccc4c3C(=O)N(c3ccc(Oc5ccc(N6C(=O)c7cccc(*)c7C6=O)cc5)cc3)C4=O)cc2)(C(F)(F)F)C(F)(F)F)cc1 (repeat unit)
11,212.00,*Oc1cccc(Sc2ccc(Oc3ccc4c(c3)C(=O)N(c3ccc(Oc5ccc(N6C(=O)c7ccc(*)cc7C6=O)cc5)cc3)C4=O)cc2)c1 (repeat unit)
12,194.00,*Oc1cccc(S(=O)(=O)c2ccc(Oc3ccc4c(c3)C(=O)N(c3ccc(Oc5cccc(Oc6ccc(N7C(=O)c8ccc(*)cc8C7=O)cc6)c5)cc3)C4=O)cc2)c1 (repeat unit)
13,241.00,*Oc1cccc2c1C(=O)N(c1cccc(S(=O)(=O)c3cccc(N4C(=O)c5cccc(*)c5C4=O)c3)c1)C2=O (repeat unit)
14,215.00,*Oc1cccc(C(C)(C)c2ccc(Oc3ccc4c(c3)C(=O)N(c3cccc(N5C(=O)c6ccc(*)cc6C5=O)c3)C4=O)cc2)c1 (repeat unit)
15,210.00,*Oc1cccc(C(=O)c2ccc(Oc3ccc4c(c3)C(=O)N(c3ccc(Oc5ccc(N6C(=O)c7ccc(*)cc7C6=O)cc5)cc3)C4=O)cc2)c1 (repeat unit)
16,267.00,*Oc1cccc(S(=O)(=O)c2ccc(Oc3cccc4c3C(=O)N(c3ccc(Oc5ccc(N6C(=O)c7cccc(*)c7C6=O)cc5)cc3)C4=O)cc2)c1 (repeat unit)
17,299.50 ± 0.7,*c1cccc2c1C(=O)N(c1ccc(Cc3ccc(N4C(=O)c5cccc(*)c5C4=O)c(C)c3)cc1C)C2=O (repeat unit)
18,309.00,*Oc1c(F)c(F)c(Oc2c(F)c(F)c3c(c2F)C(=O)N(c2c(F)c(F)c(F)c(N4C(=O)c5c(F)c(*)c(F)c(F)c5C4=O)c2F)C3=O)c(F)c1F (repeat unit)
19,236.00,*Oc1cccc(C(C)(C)c2ccc(Oc3cccc4c3C(=O)N(c3cccc(N5C(=O)c6cccc(*)c6C5=O)c3)C4=O)cc2)c1 (repeat unit)
20,292.00,*C(=O)c1ccc2c(c1)C(=O)N(c1ccc(Cc3cccc(N4C(=O)c5ccc(*)cc5C4=O)c3)cc1)C2=O (repeat unit)
21,278.00,*c1ccc2c(c1)C(=O)N(c1ccc(-c3ccc(N4C(=O)c5ccc(C(*)(C(F)(F)F)C(F)(F)F)cc5C4=O)cc3-c3cccc(C(F)(F)F)c3)c(-c3cccc(C(F)(F)F)c3)c1)C2=O (repeat unit)
22,300.00,*C(=O)c1ccc2c(c1)C(=O)N(c1c(CC)cc(Cc3cc(CC)c(N4C(=O)c5ccc(*)cc5C4=O)c(CC)c3Cl)c(Cl)c1CC)C2=O (repeat unit)
23,215.00,*Oc1cccc(Oc2ccc(Oc3ccc4c(c3)C(=O)N(c3ccc(Oc5ccc(N6C(=O)c7ccc(*)cc7C6=O)cc5)cc3)C4=O)cc2)c1 (repeat unit)
24,260.00,*Oc1cccc(S(=O)(=O)c2ccc(Oc3ccc4c(c3)C(=O)N(c3ccc(Oc5ccc(N6C(=O)c7ccc(*)cc7C6=O)cc5)cc3)C4=O)cc2)c1 (repeat unit)
25,266.00,*Oc1cccc(S(=O)(=O)c2ccc(Oc3cccc4c3C(=O)N(c3cccc(N5C(=O)c6cccc(*)c6C5=O)c3)C4=O)cc2)c1 (repeat unit)
26,128.00,*Oc1ccc(Oc2ccc(Oc3cccc4c3C(=O)N(CCCCCCCCN3C(=O)c5cccc(*)c5C3=O)C4=O)cc2)cc1 (repeat unit)
27,262.00,*c1cc(N2C(=O)c3ccc(-c4ccc5c(c4)C(=O)N(*)C5=O)cc3C2=O)ccc1OCC(F)(F)C(F)(F)C(F)(F)C(F)(F)C(F)(F)C(F)(F)F (repeat unit)
28,266.50,*C(=O)Oc1ccc2ccccc2c1-c1c(OC(=O)c2ccc3c(c2)C(=O)N(c2ccc(C(=O)Oc4ccc5ccccc5c4-c4c(OC(=O)c5ccc(N6C(=O)c7ccc(*)cc7C6=O)cc5)ccc5ccccc45)cc2)C3=O)ccc2ccccc12 (repeat unit)
29,321.00,*c1ccc(C(=O)c2ccccc2-n2c(=O)c3cc4c(=O)n(*)c(=O)c4cc3c2=O)cc1 (repeat unit)

row,SMILES,glass transition temperature [°C]
1,*c1ccc(P(=O)(c2ccccc2)c2ccc(N3C(=O)c4ccc(-c5ccc6c(c5)C(=O)N(*)C6=O)cc4C3=O)cc2)cc1 (repeat unit),371.00
2,*Oc1ccc2c(c1)C(=O)N(c1cccc(Oc3ccc(P(=O)(c4ccccc4)c4ccc(Oc5ccc(N6C(=O)c7ccc(*)cc7C6=O)cc5)cc4)cc3)c1)C2=O (repeat unit),240.00
3,*c1ccc2c(c1)C(=O)N(c1ccc(Oc3ccc(P(=O)(c4ccccc4)c4ccc(Oc5cccc(N6C(=O)c7ccc(C(*)(C(F)(F)F)C(F)(F)F)cc7C6=O)c5)cc4)cc3)cc1)C2=O (repeat unit),220.00

# Remark: another data set of the same source
row,glass transition temperature [°C],SMILES
1,65.00,*c1ccc2c(c1)N(CC(CCCCCCCC)CCCCCCCCCC)C(=O)/C2=C1/C(=O)N(CC(CCCCCCCC)CCCCCCCCCC)c2cc(-c3ccc(-c4ccc(*)s4)s3)ccc21 (repeat unit)
2,126.00,*c1ccc2c(c1)C(CCCCCCCC)(CCCCCCCC)c1cc(-c3ccc(-c4ccc(-c5ccc(*)s5)c5nsnc45)s3)ccc1-2 (repeat unit)
3,192.00,*c1ccc2c(c1)C(CCCCCCCC)(CCCCCCCC)c1cc(-c3ccc(-c4c(-c5ccccc5)c(-c5ccccc5)c(-c5ccc(*)s5)c5nc(-c6ccccc6)c(-c6ccccc6)nc45)s3)ccc1-2 (repeat unit)
4,102.00,*c1ccc2c(c1)C(CCCCCCCC)(CCCCCCCC)c1cc(-c3ccc(-c4ccc(*)s4)s3)ccc1-2 (repeat unit)
5,90.00,*c1cc2c(s1)c1sc(-c3sc(-c4ccc(-c5cc(CCCCCC)c(*)s5)c5nsnc45)cc3CCCCCC)cc1n2CC(CC)CCCC (repeat unit)

# Remark: another data set of the same source
row,SMILES,glass transition temperature [°C]
1,*CC(*)(C)C(=O)OCC(C)C (repeat unit) [Poly(isobutyl methacrylate) ],47.4 ± 0.7
2,*CC(*)c1cccc(CO)c1 (repeat unit) [Poly(m-hydroxymethyl styrene) ],124.4 ± 0.7
3,*CCCCCCO* (repeat unit) [Polyoxyhexamethylene ],-71.6 ± 3.5
4,*CC(*)c1ccc(OC)cc1C (repeat unit) [Poly(4-methoxy-2-methyl styrene) ],87.4 ± 3.5
5,*CC(*)c1ccc(C(C)CC)cc1 (repeat unit) [Poly(p-sec-butyl styrene) ],85.4 ± 0.7
6,*CC(*)c1ccccc1OCCCCCCCC (repeat unit) [Poly(o-n-octoxy styrene) ],12 ± 1.4

# From the PolyMetriX glass transition set
